Measured values: patent US20080027143A1, “CHEMICAL FORMULATION FOR AN INSECTICIDE” (priority 2006, published 2008)

Tests used:
Type in all cases: physicochemical
[1] = Storage stability of insecticide in solvent
Excerpt: Stability data determined using analytical tools are given below:

Viscosity of solvent = conditions: at 25 deg. C.
Procedure: Referring again to Table 5, release rates of 8.0 wt %/wt % Transfluthrin in solvent are strongly correlated to viscosity of solvent. A solvent viscosity of less than or substantially equal to about 4 centistokes (cSt) at 25 Celsius is preferred as release rates stay above 5 mg/hr. Release rates lower than 5 mg/hr require much higher concentration of insecticide (higher insecticidal concentrations lead to thickening of the formula which may become unacceptable to delivery via piezoelectric delivery systems). A solvent viscosity of less than or substantially equal to about 3 cSt is more preferred as this enables the insecticidal concentration(s) to be kept below 10%.

[2] = Release rate and evaporation loss from piezoelectric diffusion device (Table 5); conditions: for Evaporation Loss: OFF switch position, average of 30 hours; for Evaporation Loss / Release Rate in High Setting: 3 repetitions; for Release Rate in High Setting: ON, high switch setting, average of 13 hours
Excerpt: A highly permeable wick is used in the diffusion device 20 to ensure easy and effective transfer of the liquid from the tip of the wick to the orifice plate 110. In addition, the plug and wick holder 72 that is fitted to the reservoir 50 includes two small orifices to enable equilibration of pressure between the headspace in the reservoir and the surrounding atmosphere. These design factors lead to slow evaporation of the solvent regardless of where the device 20 is switched on or off. Solvents with high volatility tend to evaporate more rapidly leading to concentration of the insecticide in the reservoir 50. This increases the viscosity of the formula and slows down the overall release rates, leading to a negative impact on product performance. […] [table]

[3] = Release rates over 14 days for solvents with different boiling point ranges (Table 7)
Excerpt: The effect of solvents with different boiling point ranges on release rates were studied and the results are show in the following Table 7: [table]

[4] = With 8.0 wt %/wt % Transfluthrin in Solvent

| Compound | Stability in hydrocarbon solvents (conclusion) [1] | Viscosity of Solvent (Viscosity of solvent) [cSt] | Evaporation Loss as Percent of Release Rate [2, 4] [%] | Evaporation Loss [2, 4] [mg/h] | Release Rate in High Setting [2, 4] [mg/h] | Evaporation Loss as Percent of Release Rate ([2]; With Pure Solvent) [%] | Evaporation Loss ([2]; With Pure Solvent) [mg/h] | Release Rate in High Setting ([2]; With Pure Solvent) [mg/h] | Residual Liquid ([3]; after the 14 days) | Average Release Rate during 1–5 days ([3]; high setting, average period of 7.1 hours per day, days 1–5) [mg/h] | Average Release Rate during 6–10 days ([3]; high setting, average period of 7.1 hours per day, days 6–10) [mg/h] | Average Release Rate during 11–14 days ([3]; high setting, average period of 7.1 hours per day, days 11–14) [mg/h] |
| --- | --- | --- | --- | --- | --- | --- | --- | --- | --- | --- | --- | --- |
| C/C=C/C1C(C(=O)OCc2c(F)c(F)c(COC)c(F)c2F)C1(C)C (stereo not shown) [Metofluthrin] | stable |  |  |  |  |  |  |  |  |  |  |  |
| CCCOCC(C)O (stereo not shown) [DOWANOL ® PnP] |  | 2.7 | 73.1 | 16.05 | 22.0 | 38.4 | 9.73 | 25.3 | Zero | 19.1 | 18.0 | 10.0 |
| CC1(C)[C@H](C=C(Cl)Cl)[C@H]1C(=O)OCc1c(F)c(F)cc(F)c1F [Transfluthrin] | stable |  |  |  |  |  |  |  |  |  |  |  |
